Among the data in ChEMBL document CHEMBL1667796, “Synthesis and evaluation of phosphonated N-heteroarylcarboxamides as DOXP-reductoisomerase (DXR) inhibitors” (Bioorg Med Chem, 2011) are Activity, IC50 and inhibition values, retold here.

The test system of assay [1] is Escherichia coli. As to the kind of experiment: Binding affinity at Escherichia coli DXR by saturation transfer difference NMR spectroscopy.
The nature of assay [2]: Inhibition of Escherichia coli DXR assessed as conversion of NADPH to NADP by spectrophotometry.
For assay [3], the system named is Escherichia coli. As to the kind of experiment: Inhibition of Escherichia coli DXR assessed as conversion of NADPH to NADP at 500 uM by spectrophotometry.
Assay [4] concerns Escherichia coli. As to the kind of experiment: Inhibition of Escherichia coli DXR assessed as conversion of NADPH to NADP at 0.3 uM by spectrophotometry.

The source made the active and inactive calls. The rule behind the calls is not given here.

For `O=C(CP(=O)(O)O)Nc1nccs1`, the result in assay [1] was Active. Further, the IC50 (in general, the concentration needed to halve the response being measured) in assay [2] (read-out: IC50) was greater than 1.5 mM. Moreover, the inhibition (commonly the relative decrease from the control value, in per cent) in assay [3] was determined as 7.4%.

As to `CCOP(=O)(CC(=O)Nc1ccccn1)OCC`, the result in assay [1] was Active. Besides, the half-inhibitory concentration (IC50) in assay [2] (read-out: IC50) is 0.472 mM. Moreover, in assay [3], the inhibition was found to be 58.5%.

Turning to `CCOP(=O)(CC(=O)Nc1nccs1)OCC`, in assay [1], the result was Active. For the same compound, the IC50 in assay [2] (read-out: IC50) was determined as 0.73 mM. The inhibition in assay [3] came to 28.9%.

For the compound `CCOP(=O)(CC(=O)Nc1ccon1)OCC`, in assay [1], the outcome was Active. In addition, the IC50 in assay [2] (read-out: IC50) amounted to 1.17 mM. The inhibition in assay [3] was determined as 11.7%.

With `O=C(CP(=O)(O)O)Nc1ccon1`, in assay [1], the result was Active. Also, the half-inhibitory concentration (IC50) in assay [2] (read-out: IC50) is greater than 1.5 mM. In addition, the inhibition in assay [3] was 12.2%.

Consider `O=C(CP(=O)(O)O)NCc1ccco1`, for which, in assay [1], the outcome was Active. Also, the half-maximal inhibitory concentration (IC50) in assay [2] (read-out: IC50) was determined as 1.03 mM. The inhibition in assay [3] amounted to 30%.

Consider `CCOP(=O)(CC(=O)Nc1nc(C)c(C(C)=O)s1)OCC`, for which, in assay [1], the result was Active. Besides, the IC50 in assay [2] (read-out: IC50) was 1.29 mM.

With `CC(=O)c1sc(NC(=O)CP(=O)(O)O)nc1C`, the result in assay [1] was Active. In addition, in assay [2] (read-out: IC50), the IC50 is greater than 1.5 mM. Besides, the inhibition in assay [3] amounted to 16.6%.

Take `O=CN(O)CCCP(=O)(O)O`: the inhibition in assay [4] stood at 99.3%.

As to `CCOP(=O)(CC(=O)NCc1ccco1)OCC`, the outcome in assay [1] was Active. Also, the IC50 in assay [2] (read-out: IC50) is 0.408 mM. Further, the inhibition in assay [3] amounted to 67.7%.

Consider `O=C(CP(=O)([O-])[O-])Nc1ccccn1.[Na+].[Na+]`, for which, in assay [1], the outcome was Active. In addition, the IC50 result in assay [2] is given as “Not Active”. In assay [3], the inhibition result is “inactive”.
